Measurements published in patent US20240261234A1, “USE OF C[…] THE TREATMENT OF NOCTURNAL SNORING” (GW Research Limited, priority 2014, published 2024).
Several values for one entry are separate records, joined by “and”; a condition that tells them apart may be missing. Identical values can stand only once. Entries after “also recorded” stand apart in the source; their conditions may differ.

Key:
apnea hypopnea index = settings: short term; small trial; cited from earlier work
[1] = tested on: seizures in treatment-resistant epilepsy characterised by Doose Syndrome; assay: Expanded access compassionate use program: seizure frequency with CBD therapy in Doose Syndrome; assay type: in vivo, children and young adults
Description: (§1) Of 137 children and young adults with severe, childhood onset treatment-resistant epilepsy (TRE), six suffered from Doose Syndrome. These subjects were tested with a highly purified extract of cannabidiol (CBD) obtained from a cannabis plant. The participants in the study were part of an expanded access compassionate use program for CBD.
(§2) All of these patients with a diagnosis of Doose Syndrome presented with multiple seizure types which included tonic-clonic seizures; myoclonic seizures; atonic seizures; absence seizures; myoclonic-absence seizures; and tonic seizures. In addition nocturnal snoring was encountered by one of the patients in the study.
Both patients entered a baseline period of 4 weeks when parents/caregivers kept prospective seizure diaries, noting all countable motor seizure types.
(§3) The patients then received a highly purified CBD extract (greater than 98% CBD w/w) in sesame oil, of known and constant composition, at a dose of 5 mg/kg/day in addition to their baseline anti-epileptic drug (AED) regimen.
Laboratory testing for hematologic, liver, kidney function, and concomitant AED levels was performed at baseline, and after CBD therapy.
All patients were taking at least two concomitant anti-epileptic drugs. These included clobazam; diazepam; lacosamide; lamotrigine; levetiracetam; lorazepam; nordiazepam; n-desmethylclobazam; phenytoin; valproic acid; zonisamide. The average number of concomitant antiepileptic drugs being taken was 2.7. The majority took either clobazam and/or valproic acid.
There were 6 children and young adult patients who received at least 3 months of treatment all of whom suffered from treatment-resistant epilepsy which is characterised by Doose Syndrome.
The change from baseline in the number of different seizures and total number of seizures after 16 weeks treatment are summarized in Table 4 below.

[2] = tested on: nocturnal snoring in a patient with Doose Syndrome; assay: Expanded access compassionate use program: nocturnal snoring with CBD therapy; assay type: in vivo, children and young adults
Description: as §1, §2, §3
Table 5 below describes the data that was collated for the other seizure types including nocturnal snoring.

[3] = Solubility of the drug substance in water; assay type: physicochemical
Excerpt: The drug substance, CBD is insoluble in water. Sesame oil was selected as an excipient to solubilize the drug substance.

[4] = absence seizures (n = 3), Doose Syndrome patients
[5] = atonic seizures (n = 2), Doose Syndrome patients
[6] = tonic-clonic seizures (n = 5), Doose Syndrome patients
[7] = nocturnal snoring (n = 1), Doose Syndrome patient

SMILES | Effect on apnea hypopnea index (apnea hypopnea index) | Patients with <50% reduction in absence seizures [1, 4] [%] | Patients with >50% reduction in absence seizures [1, 4] [%] | Number of Doose syndrome patients with a decrease in total seizure frequency ([1]; after 3 months of therapy, of 6 patients) | Patients with <50% reduction in atonic seizures [1, 5] [%] | Patients with >50% reduction in atonic seizures [1, 5] [%] | Effect on seizure sub-types associated with Doose Syndrome (in words) ([1]; patients not responding well to existing AED) | Change in baseline (%) in total seizure frequency ([1]; per subject (subjects 1-6, Doose Syndrome), after 16 weeks treatment, CBD 5 up to 25 mg/kg/day added to baseline AED) | >50% reduction in seizures (total seizures) ([1]; per subject (subjects 1-6, Doose Syndrome), after 16 weeks treatment, Yes/No) | Patients with <50% reduction in tonic-clonic seizures [1, 6] [%] | Patients with >50% reduction in tonic-clonic seizures [1, 6] [%] | Effect on occurrence of nocturnal snoring (in words) ([2]; a child with Doose Syndrome) | Patients with <50% reduction in nocturnal snoring [2, 7] [%] | Patients with >50% reduction in nocturnal snoring [2, 7] [%] | Solubility in water [3]
CCCCCc1cc(O)c2c(c1)OC(C)(C)[C@@H]1CCC(C)=C[C@@H]21 [dronabinol, Tetrahydro- cannabinol] | able to reduce the apnea hypopnea index | – | – | – | – | – | – | – | – | – | – | – | – | – | –
C=C(C)[C@@H]1CCC(C)=C[C@H]1c1c(O)cc(CCCCC)cc1O [CBD, Cannabidiol] | – | 0 | 100 | five | 50 | 50 | very effective treatment for all of the seizure sub-types; also recorded: significantly reduces the number of seizures | −100.0% (2×) and 65.8% and −67.4% and −68.7% and −92.0% | Yes (5×) and No | 20 | 80 | completely eliminate the occurrence of nocturnal snoring | 0 | 100 | insoluble
